Read-outs that look alike come from different tables or passages of the source.
Tested on: HCMV
Type: cell-based
Conditions: L
Description: In example herpesvirus PRM assay methods shown herein, cell pellets were lysed in 2% SDS, 100 mM NaCl, 0.5 mM EDTA, 50 mM Tris, pH 8.2, and 50 μg of protein was reduced and alkylated with 25 mM TCEP and 50 mM CAM respectively for 20 min at 70° C. Proteins were then precipitated via methanol chloroform precipitation (Wessel & Flugg, Anal Biochem. 138(1):141-143, 1984), resuspended in 50 mM HEPES, pH 8.2 and digested overnight with trypsin (50:1 protein:enzyme w/w ratio). Digested peptides were desalted by SDB-RPS StageTip as previously described (Lum et al., Cell Syst., 7(6):[…], 2018; Greco et al., Methods Mol Biol 1410:39-63, 2016; Federspiel & Cristea, Methods Mol Biol., 1977:115-143, 2019).
Peptides (1.0 μg on column) were analyzed by LC-MS/MS using a Dionex Ultimate 3000 UHPLC coupled online to an EASYSpray ion source and a Q Exactive HF. Peptides were separated on an EASYSpray C18 column (75 μm×25 cm) heated to 50° C. using a linear gradient of 5% B to 32% B over 60 min at a flow rate of 250 nL/min and were ionized at 1.7 kv. Mobile phase A consisted of 0.1% FA in H2O and mobile phase B consisted of 0.1% FA, 2.9% H2O in ACN.
The PRM method was controlled by a peptide inclusion list with retention time windows of 6 min for selected precursor ions.
The PRM assay was developed and analyzed using the open-source software Skyline (Maclean et al., Bioinformatics 26(7):966-968, 2010). Summed area under the curve of 3-4 transitions per peptide was used for quantitation. Targeted peptides were normalized to host protein loading control peptides. Peptide values for each sample were scaled to the average of each peptide across all runs. The average of multiple peptides was used as the inferred value for the protein measurement when more than one peptide was quantified (Federspiel et al., PLoS Biol. 17(9):e3000437. Doi: 10.1371/journal.pbio.3000437). PRM quantitation data were graphed using the Python Seaborn and Matplotlib libraries.
MRC5 primary human fibroblasts (HFs) (ATCC CCL-171) were used as the model system for HSV-1 and HCMV infections and were cultured in complete growth medium (DMEM supplemented with 10% fetal bovine serum and 1% penicillin-streptomycin antibiotics) at 37° C. and 5% CO2. iSLK.219 cells harboring latent KSHV (a gift from Dr. Britt Glaunsinger, University of California, Berkeley) were grown in complete growth medium supplemented with 500 μg/ml hygromycin (ThermoFisher Scientific, 10687010) at 37° C. and 5% CO2. All cells were used for experiments within a maximum of 10 passages.
Wild type HSV-1 strain 17+ (a gift from Beate Sodeik, Hannover Medical School, Hannover, Germany) was propagated as previously described (Diner et al., 2015). Briefly, PO stocks were generated by electroporating pBAC-HSV-1 into U-2 OS cells. […] In a similar manner, wild type HCMV strain AD169 was produced from BAC electroporation into HFs and working stocks were propagated by infecting HFs at a low level. In both cases, cell-associated virus was released by sonication, combined with supernatant virus, then concentrated by ultracentrifugation (20,000 rpm, 2 hours, 4° C. with SW28 swinging bucket rotor [Beckman Coulter]) over a 10% ficoll (HSV-1) or 20% sorbitol (HCMV) cushion. Virus stock titers were determined by plaque assay for HSV-1 or tissue culture infectious dose (TCID50) for HCMV and infections were performed at a multiplicity of infection (MOI) of 3.
12 hours prior to virus infection or reactivation, cells were treated with either the small molecule drug or DMSO/PBS control at an equivalent volume. […] For infection cycles lasting longer than 24 hours, small molecule drugs were re-added to the cell culture medium every 24 hours. Upon collection, cells were rinsed with PBS, scraped into a microcentrifuge tube, pelleted by centrifugation, and rinsed again with PBS.

Nc1ccn(C[C@@H](CO)OCP(=O)(O)O)c(=O)n1 [CDV, cidofovir]
UL82 (P06726) protein, numerical value of heatmap FIG. 6C (timepoint 48): 0.2148
UL88 (P16731) protein, numerical value of heatmap FIG. 6C (timepoint 48): 0.05021
UL94 (P16800) protein, numerical value of heatmap FIG. 6C (timepoint 48): 0.09258
UL99 (P13200) protein, numerical value of heatmap FIG. 6C (timepoint 48): 0.06513
UL103 (P16734) protein, numerical value of heatmap FIG. 6C (timepoint 48): 0.1954
UL117 (P16770) protein, numerical value of heatmap FIG. 6C (timepoint 48): 0.3875
gH (P12824) protein, numerical value of heatmap FIG. 6C (timepoint 48): 0.1304
gL (P16832) protein, numerical value of heatmap FIG. 6C (timepoint 48): 0.06908
gM (P16733) protein, numerical value of heatmap FIG. 6C (timepoint 48): 0.03119
gN (P16795) protein, numerical value of heatmap FIG. 6C (timepoint 48): 0.07597
sp|P16809|IR11_HCMVA (P16809) protein, numerical value of heatmap FIG. 6C (timepoint 48): 0.502
CVC1 (P16799) protein, numerical value of heatmap FIG. 6C (timepoint 72): 0.4079
GO (P16750) protein, numerical value of heatmap FIG. 6C (timepoint 72): 0.601
MCP (P16729) protein, numerical value of heatmap FIG. 6C (timepoint 72): 0.4006
SCP (Q7M6N6) protein, numerical value of heatmap FIG. 6C (timepoint 72): 0.3733
TRM2 (P16792) protein, numerical value of heatmap FIG. 6C (timepoint 72): 0.5505
UL22A (P16845) protein, numerical value of heatmap FIG. 6C (timepoint 72): 0.4199
UL25 (P16761) protein, numerical value of heatmap FIG. 6C (timepoint 72): 0.4606
UL29 (P16764) protein, numerical value of heatmap FIG. 6C (timepoint 72): 0.8549
UL30 (P16765) protein, numerical value of heatmap FIG. 6C (timepoint 72): 0.4115
UL31 (P16848) protein, numerical value of heatmap FIG. 6C (timepoint 72): 0.4223
UL43 (P16781) protein, numerical value of heatmap FIG. 6C (timepoint 72): 0.2402
UL52 (P16793) protein, numerical value of heatmap FIG. 6C (timepoint 72): 0.4658
UL76 (P16725) protein, numerical value of heatmap FIG. 6C (timepoint 72): 0.3035
UL79 (P16752) protein, numerical value of heatmap FIG. 6C (timepoint 72): 0.4713
UL80 (P16753) protein, numerical value of heatmap FIG. 6C (timepoint 72): 0.6581
UL82 (P06726) protein, numerical value of heatmap FIG. 6C (timepoint 72): 0.4947
UL88 (P16731) protein, numerical value of heatmap FIG. 6C (timepoint 72): 0.4289
UL94 (P16800) protein, numerical value of heatmap FIG. 6C (timepoint 72): 0.5474
UL99 (P13200) protein, numerical value of heatmap FIG. 6C (timepoint 72): 0.455
UL103 (P16734) protein, numerical value of heatmap FIG. 6C (timepoint 72): 0.5642
UL117 (P16770) protein, numerical value of heatmap FIG. 6C (timepoint 72): 0.5867
gH (P12824) protein, numerical value of heatmap FIG. 6C (timepoint 72): 0.7542
gL (P16832) protein, numerical value of heatmap FIG. 6C (timepoint 72): 0.5073
gM (P16733) protein, numerical value of heatmap FIG. 6C (timepoint 72): 0.477
gN (P16795) protein, numerical value of heatmap FIG. 6C (timepoint 72): 0.5141
sp|P16809|IR11_HCMVA (P16809) protein, numerical value of heatmap FIG. 6C (timepoint 72): 0.869
CVC1 (P16799) protein, numerical value of heatmap FIG. 6C (timepoint 96): 0.6
GO (P16750) protein, numerical value of heatmap FIG. 6C (timepoint 96): 0.5678
MCP (P16729) protein, numerical value of heatmap FIG. 6C (timepoint 96): 0.8755
SCP (Q7M6N6) protein, numerical value of heatmap FIG. 6C (timepoint 96): 0.678
TRM2 (P16792) protein, numerical value of heatmap FIG. 6C (timepoint 96): 0.8343
UL22A (P16845) protein, numerical value of heatmap FIG. 6C (timepoint 96): 0.5842
UL25 (P16761) protein, numerical value of heatmap FIG. 6C (timepoint 96): 0.8443
UL29 (P16764) protein, numerical value of heatmap FIG. 6C (timepoint 96): 0.8921
UL30 (P16765) protein, numerical value of heatmap FIG. 6C (timepoint 96): 0.5445
UL31 (P16848) protein, numerical value of heatmap FIG. 6C (timepoint 96): 0.6245
UL43 (P16781) protein, numerical value of heatmap FIG. 6C (timepoint 96): 0.7777
UL52 (P16793) protein, numerical value of heatmap FIG. 6C (timepoint 96): 0.8766
UL76 (P16725) protein, numerical value of heatmap FIG. 6C (timepoint 96): 0.421
UL79 (P16752) protein, numerical value of heatmap FIG. 6C (timepoint 96): 0.5586
